Results from ChEMBL document CHEMBL3132797, “Synthesis and biological evaluation of substituted N-alkylphenyl-3,5-dinitrobenzamide analogs as anti-TB agents” (Medchemcomm, 2014).
Values after ≈ are worked out from the molar mass of the structure shown.

Assays:
Type in all cases: functional
[1] = system: Mycobacterium tuberculosis; assay: Antimycobacterial activity against multidrug-resistant Mycobacterium tuberculosis clinical isolates by broth dilution method
[2] = system: Mycobacterium tuberculosis; assay: Antimycobacterial activity against rifampicin-resistant Mycobacterium tuberculosis clinical isolates by broth dilution method
[3] = system: Mycobacterium tuberculosis; assay: Antimycobacterial activity against isoniazid-resistant Mycobacterium tuberculosis clinical isolates by broth dilution method

SMILES | MIC [1] [µM] | MIC [2] [µM] | MIC [3] [µM]
C[C@@H](NC(=O)c1cc([N+](=O)[O-])cc([N+](=O)[O-])c1)c1ccccc1 | 12.7 (≈ 4 µg/mL) | < 0.047 | 0.79 (≈ 0.249 µg/mL)
O=C(NCCc1ccccc1)c1cc([N+](=O)[O-])cc([N+](=O)[O-])c1 | > 12.7 | < 0.19 | 0.795 (≈ 0.251 µg/mL)
O=C(Nc1ccc(F)cc1)c1cc([N+](=O)[O-])cc([N+](=O)[O-])c1 |  | 13 (≈ 3.98 µg/mL) | 
O=C(Nc1ccccc1F)c1cc([N+](=O)[O-])cc([N+](=O)[O-])c1 |  | 13 (≈ 3.98 µg/mL) | 
O=C(Nc1cc(Cl)cc(Cl)c1)c1cc([N+](=O)[O-])cc([N+](=O)[O-])c1 |  | 45.1 (≈ 16.1 µg/mL) | 
N#Cc1ccccc1NC(=O)c1cc([N+](=O)[O-])cc([N+](=O)[O-])c1 |  | 3.2 (≈ 0.999 µg/mL) | 
COc1ccc(CCNC(=O)c2cc([N+](=O)[O-])cc([N+](=O)[O-])c2)cc1 |  | < 0.17 | 
CCCCC(CC)CNC(=O)c1cc([N+](=O)[O-])cc([N+](=O)[O-])c1 (stereo not drawn) |  | < 0.19 | 
O=C(NC1CCCC1)c1cc([N+](=O)[O-])cc([N+](=O)[O-])c1 |  | 0.9 (≈ 0.251 µg/mL) | 
Cc1c([N+](=O)[O-])cc(C(=O)NCc2ccccc2)cc1[N+](=O)[O-] |  | 3.17 (≈ 0.999 µg/mL) | 
Cc1ccc([C@@H](C)NC(=O)c2cc([N+](=O)[O-])c(C)c([N+](=O)[O-])c2)cc1 | 0.35 (≈ 0.12 µg/mL) | < 0.04 | 0.35 (≈ 0.12 µg/mL)
Cc1c([N+](=O)[O-])cc(C(=O)N[C@H](C)c2ccc(F)cc2)cc1[N+](=O)[O-] | 5.76 (≈ 2 µg/mL) | 11.5 (≈ 4 µg/mL) | 11.5 (≈ 4 µg/mL)
Cc1c([N+](=O)[O-])cc(C(=O)N[C@@H](C)c2ccc(F)cc2)cc1[N+](=O)[O-] | 0.72 (≈ 0.25 µg/mL) | < 0.04 | 0.72 (≈ 0.25 µg/mL)
Cc1ccc([C@@H](C)NC(=O)c2cc([N+](=O)[O-])cc([N+](=O)[O-])c2)cc1 | 12.2 (≈ 4 µg/mL) | < 0.05 | < 0.05
CC(C)c1ccc(NC(=O)c2cc([N+](=O)[O-])cc([N+](=O)[O-])c2)cc1 |  | 48.6 (≈ 16 µg/mL) | 
Cc1ccc(C(C)NC(=O)c2cc([N+](=O)[O-])c(C)c([N+](=O)[O-])c2)cc1 (racemic) |  | < 0.17 | 
CC[C@@H](CO)NCCN[C@@H](CC)CO [ETHAMBUTOL] | 16 (≈ 3.27 µg/mL) |  | 
NNC(=O)c1ccncc1 [ISONIAZID] | 16 (≈ 2.19 µg/mL) |  | 64 (≈ 8.78 µg/mL)
CO[C@H]1/C=C/O[C@@]2(C)Oc3c(C)c(O)c4c(O)c(c(/C=N/N5CCN(C)CC5)c(O)c4c3C2=O)NC(=O)/C(C)=C\C=C\[C@H](C)[C@H](O)[C@@H](C)[C@@H](O)[C@@H](C)[C@H](OC(C)=O)[C@@H]1C [RIFAMPIN] | 64 (≈ 52.7 µg/mL) | 256 (≈ 211 µg/mL) | 
